# In US20260242440A1, “NOVEL MEANS TO MODULATE NMDA RECEPTOR-MEDIATED TOXICITY” (FUNDAMENTAL PHARMA GMBH, priority 2018, published 2026):
# Entries after “also recorded” stand apart in the source; their conditions may differ.
# Legend:
# [1] = system: primary mouse hippocampal neurons; assay: NMDA receptor induced mitochondrial membrane potential breakdown (Rh123 imaging); assay type: cell-based
# Experimental: Coverslips with primary cultured neurons (DIV15-DIV17) were used to examine mitochondrial membrane potential (Ψm) and mitochondrial calcium signalling, which was performed at room temperature in CO2-independent culture medium (CICM) containing: 10 mM HEPES, 140 mM NaCl, 2.5 mM KCl, 1.0 mM MgCl2, 2.0 mM CaCl2, 1.0 mM Glycine, 35.6 mM Glucose and 0.5 mM Na-pyruvate. All images were obtained by a cooled-CCD camera (iXon 887, Andor) on an upright microscope (BX51WI, Olympus). Fluorescence excitation was provided by a xenon arc lamp in combination with an excitation filter wheel (MT-20, Olympus). Data were collected using Cell^R software (Olympus), analysed using ImageJ and quantified using Igor Pro (WaveMetrics). Ψm was detected with the small molecule fluorescence indicator Rhodamine 123 (Rh123; Molecular Probe™, R302). Primary cultured neurons were loaded with 4.3 μM Rh123 in CICM at 37° C. for 30 min, then washed and left in CICM for another 30 min before recording. At the end of each experiment, the mitochondrial uncoupler FCCP (5 μM, Sigma-Aldrich, Cat #C2920) was applied to the cells to reach the maximal Rh123 fluorescence intensity. Rh123 was imaged with 470±20 nm excitation and 525±25 nm emission wavelengths using a 20× objective. Rh123 fluorescence intensity was measured in the nucleus to minimize contamination from cytosolic mitochondrial signal and Rh123 fluorescence intensity was normalized to the maximum FCCP signal for each region of interest.
# Mitochondrial dysfunction is a hallmark of NMDA receptor excitotoxicity and an early event en-route to neuronal death. A parameter that is often used to assess mitochondrial integrity is the mitochondrial membrane potential. A breakdown of the mitochondrial membrane potential can be observed after exposure of hippocampal or cortical neurons to NMDA and indicates excitotoxicity-associated mitochondrial dysfunction. Therefore, the inventors investigated the effect of polypeptides comprising the sequence of SEQ ID NO:5 or SEQ ID NO: 54 as well as of the control TRMP5 sequence (SEQ ID NO: 55) on mitochondrial membrane potential break down in primary mouse hippocampal neurons. Excitotoxicity leading to mitochondrial membrane potential break down was induced with bath application of 20 μM NMDA. After 11 minutes, the mitochondrial uncoupler, carbonylcyanide-p-trifluoromethoxyphenylhydrazone (FCCP) was added. Addition of FCCP leads to break-down of the mitochondrial membrane potential and served as a control of the test system.
# [2] = system: middle cerebral artery occlusion (MCAO) mouse stroke model; assay: middle cerebral artery occlusion (MCAO) mouse stroke model, infarct volume; assay type: in vivo; conditions: rAAV delivered stereotactically to mouse cortex 3 weeks before MCAO; quantified 7 days post-injury; vs PBS control
# Text: Given the robust protective effect of SEQ ID NO:5 in cultured neurons, the inventors next analysed its neuroprotective potential in vivo using the middle cerebral artery occlusion (MCAO) mouse stroke model.
# Stereotactic intracerebral injection to the cortex of mice: C57BL/6N male mice (8 weeks±5 days old) weighing 25±1 g were randomly grouped and anaesthetized with a mixture of Sedin©, Midazolam and Fentanyl®-Janssen and placed on a rodent stereotactic frame on a heat pad temperature controlled by a ATC1000 DC rectal thermometer (World Precision Instruments, Berlin). rAAV-SEQ ID NO:5) was infused into the left cortex (coordinates relative to Bregma: first site: AP 0.2 mm; ML 2.0; DV −2.0; second site: AP 0.2; ML 2.0; DV −1.8; third site: AP 0.2; ML 3.0; DV −4.0; forth site: AP 0.2; ML 3.0; DV −3.5.) using a Ultra Micro Pump III (World Precision Instruments, Berlin) to drive a 10 μl Nanofil syringe (World Precision Instruments, Berlin). […]
# MCAO: Middle cerebral artery occlusion (MCAO) induced a permanent distal occlusion of the middle cerebral artery (MCA). […] The silver stained sections were scanned at 1200 dpi and infarct area was measured by using ImageJ software (NIH Image). Surgery was performed and ischemic damage was measured by an investigator who had no knowledge of the treatment group, rAAV or recombinant protein was applied by stereotactic injection or intranasal delivery.
Molecule,"protection of mitochondrial membrane potential from NMDA excitotoxicity ([1]; compound applied 30 min prior to recording, bath application of NMDA)","NMDA receptor induced mitochondrial membrane potential breakdown ([1]; polypeptides expressed via rAAV, bath application of 20 μM NMDA)",infarct volume [2]
CCN(CCN)Cc1cccc(Br)c1 [P4],significantly protect mitochondrial membrane potential from NMDA excitotoxicity,–,–
"SEQ ID NO:5: polypeptide, amino acid residues 633-689 of mouse TRPM4 (NSEERAARLLLRRCPLWGEATCLQLAMQADARAFFAQDGVQSLLTQKWWGEMDSTTP; listed as Mus musculus)",–,capable of preventing NMDA receptor induced mitochondrial membrane potential breakdown,significantly smaller; also recorded: effectively reduced the infarct volumes
